ChEMBL document CHEMBL1133284, “3-Phenyl-5-methyl-2H,5H-furan-2-ones: tuning antifungal activity by varying substituents on the phenyl ring” (2000)
≈ marks a conversion by molar mass, not a printed value.

Assays:
Trichosporon beigelii [1] = assay: In vitro minimum inhibitory concentration of compound was determined against Trichosporon beigelii after 48 hr; assay type: functional
Pichia kudriavzevii [2] = assay: In vitro minimum inhibitory concentration of compound was determined against Candida krusei after 48 hr; assay type: functional
Candida tropicalis [3] = assay: In vitro minimum inhibitory concentration of compound was determined against Candida tropicalis after 48 hr; assay type: functional
Trichophyton benhamiae [4] = assay: In vitro minimum inhibitory concentration of compound was determined against Trichophyton mentagrophytes after 72 hr; assay type: functional, Arthroderma benhamiae
Candida albicans [5] = assay: In vitro minimum inhibitory concentration of compound was determined against Candida albicans after 48 hr; assay type: functional
Aspergillus fumigatus [6] = assay: In vitro minimum inhibitory concentration of compound was determined against Aspergillus fumigatus after 48 hr; assay type: functional
Nakaseomyces glabratus [7] = assay: In vitro minimum inhibitory concentration of compound was determined against Candida glabrata after 24 hr r; assay type: functional
Aspergillus fumigatus [8] = assay: In vitro minimum inhibitory concentration of compound was determined against Aspergillus fumigatus after 24 hr r; assay type: functional
Lichtheimia corymbifera [9] = assay: In vitro minimum inhibitory concentration of compound was determined against Absidia corymbifera after 24 hr r; assay type: functional
Nakaseomyces glabratus [10] = assay: In vitro minimum inhibitory concentration of compound was determined against Candida glabrata after 48 hr; assay type: functional
Trichosporon beigelii [11] = assay: In vitro minimum inhibitory concentration of compound was determined against Trichosporon beigelii after 24 hr r; assay type: functional
Pichia kudriavzevii [12] = assay: In vitro minimum inhibitory concentration of compound was determined against Candida krusei after 24 hr r; assay type: functional
Trichophyton benhamiae [13] = assay: In vitro minimum inhibitory concentration of compound was determined against Trichophyton mentagrophytes after 120 hr; assay type: functional, Arthroderma benhamiae
Candida tropicalis [14] = assay: In vitro minimum inhibitory concentration of compound was determined against Candida tropicalis after 24 hr r; assay type: functional
Lichtheimia corymbifera [15] = assay: In vitro minimum inhibitory concentration of compound was determined against Absidia corymbifera after 48 hr; assay type: functional
Candida albicans [16] = assay: In vitro minimum inhibitory concentration of compound was determined against Candida albicans after 24 hr r; assay type: functional

| Compound | MIC (Trichosporon beigelii [1]) [µM] | MIC (Pichia kudriavzevii [2]) [µM] | MIC (Candida tropicalis [3]) [µM] | MIC (Trichophyton benhamiae [4]) [µM] | MIC (Candida albicans [5]) [µM] | MIC (Aspergillus fumigatus [6]) [µM] | MIC (Nakaseomyces glabratus [7]) [µM] | MIC (Aspergillus fumigatus [8]) [µM] | MIC (Lichtheimia corymbifera [9]) [µM] | MIC (Nakaseomyces glabratus [10]) [µM] | MIC (Trichosporon beigelii [11]) [µM] | MIC (Pichia kudriavzevii [12]) [µM] | MIC (Trichophyton benhamiae [13]) [µM] | MIC (Candida tropicalis [14]) [µM] | MIC (Lichtheimia corymbifera [15]) [µM] | MIC (Candida albicans [16]) [µM] |
| --- | --- | --- | --- | --- | --- | --- | --- | --- | --- | --- | --- | --- | --- | --- | --- | --- |
| CC1C=C(c2ccc(Cl)c(Cl)c2)C(=O)O1 (configuration not stated) | > 500 | > 500 | > 500 | 31.2 (≈ 7.6 µg/mL) | 500 (≈ 122 µg/mL) | 62.5 (≈ 15.2 µg/mL) | > 500 | 7.81 (≈ 1.9 µg/mL) | 7.81 (≈ 1.9 µg/mL) | > 500 | 31.2 (≈ 7.6 µg/mL) | > 500 | 62.5 (≈ 15.2 µg/mL) | > 500 | 31.2 (≈ 7.6 µg/mL) | 31.2 (≈ 7.6 µg/mL) |
| CC(=O)N1CCN(c2ccc(OC[C@H]3CO[C@](Cn4ccnc4)(c4ccc(Cl)cc4Cl)O3)cc2)CC1 [KETOCONAZOLE] | 0.12 (≈ 0.0638 µg/mL) | 3.91 (≈ 2.08 µg/mL) | 15.6 (≈ 8.31 µg/mL) | 0.98 (≈ 0.521 µg/mL) | 0.12 (≈ 0.0638 µg/mL) | 15.6 (≈ 8.31 µg/mL) | 0.24 (≈ 0.128 µg/mL) | 15.6 (≈ 8.31 µg/mL) | 31.2 (≈ 16.6 µg/mL) | 0.49 (≈ 0.26 µg/mL) | 0.12 (≈ 0.0638 µg/mL) | 3.91 (≈ 2.08 µg/mL) | 1.95 (≈ 1.04 µg/mL) | 15.6 (≈ 8.31 µg/mL) | 31.2 (≈ 16.6 µg/mL) | 0.12 (≈ 0.0638 µg/mL) |
| Cc1ccc(C2=CC(C)OC2=O)cc1 (configuration not stated) | > 1000 | > 1000 | > 1000 | 250 (≈ 47.1 µg/mL) | > 1000 | > 1000 | > 1000 | 1000 (≈ 188 µg/mL) | 1000 (≈ 188 µg/mL) | > 1000 | > 1000 | > 1000 | 500 (≈ 94.1 µg/mL) | > 1000 | > 1000 | 1000 (≈ 188 µg/mL) |
| CC1C=C(c2ccc(F)cc2)C(=O)O1 (configuration not stated) | 250 (≈ 48 µg/mL) | 500 (≈ 96.1 µg/mL) | 500 (≈ 96.1 µg/mL) | 250 (≈ 48 µg/mL) | 250 (≈ 48 µg/mL) | 125 (≈ 24 µg/mL) | 500 (≈ 96.1 µg/mL) | 125 (≈ 24 µg/mL) | 62.5 (≈ 12 µg/mL) | 500 (≈ 96.1 µg/mL) | 125 (≈ 24 µg/mL) | 500 (≈ 96.1 µg/mL) | 250 (≈ 48 µg/mL) | 250 (≈ 48 µg/mL) | 62.5 (≈ 12 µg/mL) | 62.5 (≈ 12 µg/mL) |
| CC1C=C(c2ccccc2)C(=O)O1 (configuration not stated) | > 1000 | > 1000 | > 1000 | 500 (≈ 87.1 µg/mL) | > 1000 | > 1000 | > 1000 | 1000 (≈ 174 µg/mL) | 1000 (≈ 174 µg/mL) | > 1000 | > 1000 | > 1000 | 1000 (≈ 174 µg/mL) | > 1000 | > 1000 | 1000 (≈ 174 µg/mL) |
| CC1C=C(c2cccc(F)c2)C(=O)O1 (configuration not stated) | 500 (≈ 96.1 µg/mL) | 1000 (≈ 192 µg/mL) | 1000 (≈ 192 µg/mL) | 125 (≈ 24 µg/mL) | 250 (≈ 48 µg/mL) | 500 (≈ 96.1 µg/mL) | > 1000 | 250 (≈ 48 µg/mL) | 500 (≈ 96.1 µg/mL) | > 1000 | 250 (≈ 48 µg/mL) | 500 (≈ 96.1 µg/mL) | 125 (≈ 24 µg/mL) | 500 (≈ 96.1 µg/mL) | 500 (≈ 96.1 µg/mL) | 62.5 (≈ 12 µg/mL) |
| CC1C=C(c2ccc([N+](=O)[O-])cc2)C(=O)O1 (configuration not stated) | 1000 (≈ 219 µg/mL) | 500 (≈ 110 µg/mL) | 500 (≈ 110 µg/mL) | 62.5 (≈ 13.7 µg/mL) | 500 (≈ 110 µg/mL) | 1000 (≈ 219 µg/mL) | 500 (≈ 110 µg/mL) | 250 (≈ 54.8 µg/mL) | 250 (≈ 54.8 µg/mL) | 1000 (≈ 219 µg/mL) | 500 (≈ 110 µg/mL) | 500 (≈ 110 µg/mL) | 125 (≈ 27.4 µg/mL) | 500 (≈ 110 µg/mL) | 250 (≈ 54.8 µg/mL) | 250 (≈ 54.8 µg/mL) |
| COc1ccc(C2=CC(C)OC2=O)cc1 (configuration not stated) | > 1000 | > 1000 | > 1000 | 125 (≈ 25.5 µg/mL) | 1000 (≈ 204 µg/mL) | 1000 (≈ 204 µg/mL) | > 1000 | 1000 (≈ 204 µg/mL) | 1000 (≈ 204 µg/mL) | > 1000 | 1000 (≈ 204 µg/mL) | > 1000 | 250 (≈ 51.1 µg/mL) | 1000 (≈ 204 µg/mL) | > 1000 | 1000 (≈ 204 µg/mL) |

Continued by falling MIC (Trichosporon beigelii [1]), values first:

| MIC (Trichosporon beigelii [1]) [µM] | MIC (Pichia kudriavzevii [2]) [µM] | MIC (Candida tropicalis [3]) [µM] | MIC (Trichophyton benhamiae [4]) [µM] | MIC (Candida albicans [5]) [µM] | MIC (Aspergillus fumigatus [6]) [µM] | MIC (Nakaseomyces glabratus [7]) [µM] | MIC (Aspergillus fumigatus [8]) [µM] | MIC (Lichtheimia corymbifera [9]) [µM] | MIC (Nakaseomyces glabratus [10]) [µM] | MIC (Trichosporon beigelii [11]) [µM] | MIC (Pichia kudriavzevii [12]) [µM] | MIC (Trichophyton benhamiae [13]) [µM] | MIC (Candida tropicalis [14]) [µM] | MIC (Lichtheimia corymbifera [15]) [µM] | MIC (Candida albicans [16]) [µM] | Compound |
| --- | --- | --- | --- | --- | --- | --- | --- | --- | --- | --- | --- | --- | --- | --- | --- | --- |
| 500 (≈ 101 µg/mL) | > 500 | > 500 | 125 (≈ 25.3 µg/mL) | 500 (≈ 101 µg/mL) | 500 (≈ 101 µg/mL) | 500 (≈ 101 µg/mL) | 250 (≈ 50.6 µg/mL) | 250 (≈ 50.6 µg/mL) | > 500 | 250 (≈ 50.6 µg/mL) | 500 (≈ 101 µg/mL) | 250 (≈ 50.6 µg/mL) | 500 (≈ 101 µg/mL) | 250 (≈ 50.6 µg/mL) | 250 (≈ 50.6 µg/mL) | CC[C@@H]1C=C(c2ccc(C)cc2)C(=O)O1 |
| 250 (≈ 63.3 µg/mL) | 500 (≈ 127 µg/mL) | 500 (≈ 127 µg/mL) | 62.5 (≈ 15.8 µg/mL) | 125 (≈ 31.6 µg/mL) | 250 (≈ 63.3 µg/mL) | 250 (≈ 63.3 µg/mL) | 62.5 (≈ 15.8 µg/mL) | 62.5 (≈ 15.8 µg/mL) | 500 (≈ 127 µg/mL) | 62.5 (≈ 15.8 µg/mL) | 250 (≈ 63.3 µg/mL) | 125 (≈ 31.6 µg/mL) | 250 (≈ 63.3 µg/mL) | 125 (≈ 31.6 µg/mL) | 31.2 (≈ 7.91 µg/mL) | CC1C=C(c2cccc(Br)c2)C(=O)O1 (configuration not stated) |
| 250 (≈ 52.2 µg/mL) | 500 (≈ 104 µg/mL) | 500 (≈ 104 µg/mL) | 31.2 (≈ 6.52 µg/mL) | 125 (≈ 26.1 µg/mL) | 125 (≈ 26.1 µg/mL) | 500 (≈ 104 µg/mL) | 62.5 (≈ 13 µg/mL) | 125 (≈ 26.1 µg/mL) | 1000 (≈ 209 µg/mL) | 125 (≈ 26.1 µg/mL) | 250 (≈ 52.2 µg/mL) | 62.5 (≈ 13 µg/mL) | 250 (≈ 52.2 µg/mL) | 250 (≈ 52.2 µg/mL) | 31.2 (≈ 6.52 µg/mL) | CC1C=C(c2ccc(Cl)cc2)C(=O)O1 (configuration not stated) |
| 250 (≈ 63.3 µg/mL) | 250 (≈ 63.3 µg/mL) | 500 (≈ 127 µg/mL) | 31.2 (≈ 7.91 µg/mL) | 62.5 (≈ 15.8 µg/mL) | 250 (≈ 63.3 µg/mL) | 500 (≈ 127 µg/mL) | 62.5 (≈ 15.8 µg/mL) | 125 (≈ 31.6 µg/mL) | 1000 (≈ 253 µg/mL) | 125 (≈ 31.6 µg/mL) | 250 (≈ 63.3 µg/mL) | 62.5 (≈ 15.8 µg/mL) | 250 (≈ 63.3 µg/mL) | 125 (≈ 31.6 µg/mL) | 7.81 (≈ 1.98 µg/mL) | CC1C=C(c2ccc(Br)cc2)C(=O)O1 (configuration not stated) |
